Series [1] can be described thus: method code SF-AS, from DOI: 10.1021/jf60167a006.
Assay in series [2]: not given
The source holds these as a separate data set.

Series [3] can be described thus: method code SF-AS, from DOI: 10.1002/jps.2600630206, PMID: 4204981.
Assay in series [4]: not given
The source holds these as a separate data set.

Series [5] can be described thus: method code SF-MS, from DOI: 10.1016/j.fluid.2014.01.017. Conditions: pH 7.6.
Assay in series [6]: not given
This is another data set of the same source.

Assay in series [7]: not given
The source holds these as a separate data set.

Series [8] in a line: method code SF-GLC, from DOI: 10.1007/s002679900238, PMID: 10486045.
Assay in series [9]: not given
The source holds these as a separate data set.

Series [10] can be described thus: method code SF, from DOI: 10.1016/s0960-894x(01)80459-5.
Assay in series [11]: not given
This is another data set of the same source.

Series [12] is described as follows: method code SF-HPLC, from DOI: 10.1016/s0021-9673(01)81976-2, PMID: 4066822.
Assay in series [13]: not given
This is another data set of the same source.

Series [14] can be described thus: method code SF-AS, from Holmes, L.; Lough, E. (1976). Effect of Intramolecular Hydrogen Bonding on Partition Coefficients [Technical Note]. Defence Research Establishment Suffield.
Series [15] can be described thus: method code SF-AS, from DOI: 10.1248/cpb.36.1393.
A short description of series [16]: method code SF-AS, from DOI: 10.1016/j.bmc.2011.10.017, PMID: 22094277. Conditions: pH 7.4.
Assay in series [17]: not given
This is another data set of the same source.

Assay in series [18]: not given
The source holds these as a separate data set.

Series [19] can be described thus: method code SF-AS, from DOI: 10.1039/ft9959100995.
Series [20] is described as follows: method code SF-AS, from KuchaÅ™, M.; Rejholec, V.; Miller, V. (1985). Chromatographically determined lipophilicity and intramolecular interactions of bioactive compounds. Pharmacochemistry Library, 8, 321-331. As to conditions: pH 3.4.
Assay in series [21]: not given
This is another data set of the same source.

The nature of series [22]: method code SF-HPLC, from DOI: 10.1002/jps.2600780218, PMID: 2715940. As to conditions: pH 7.4.
Assay in series [23]: not given
The source holds these as a separate data set.

The nature of series [24]: method code SF-HPLC, from DOI: 10.1002/jps.2600831027, PMID: 7884677. Conditions: pH 2.0.
Assay in series [25]: not given
The source holds these as a separate data set.

Series [26] is described as follows: method code SF, from PMID: 2704. Conditions: pH 1.0.
The nature of series [27]: method code SF-HPLC, from DOI: 10.1002/jat.2550130210, PMID: 8486911. Conditions: pH 13.0.
Assay in series [28]: not given
The source holds these as a separate data set.

Assay in series [29]: not given
This is another data set of the same source.

A short description of series [30]: method code SF-AS, from DOI: 10.1021/jm991080o, PMID: 10579844. Conditions: pH 7.4.
The nature of series [31]: method code SF-RC, from DOI: 10.1021/jm201482p, PMID: 22339166. Conditions: pH 6.8.
Series [32] can be described thus: method code SF-GLC, from DOI: 10.1007/bf00224496.
Series [33] is described as follows: method code SF-AS, from DOI: 10.1021/bi00405a042.
Series [34] can be described thus: method code SF, from DOI: 10.1071/sr9810061.
Series [35] is described as follows: method code SF, from DOI: 10.1016/s0969-8051(99)00063-3, PMID: 10628565. As to conditions: pH 7.4.

Each structure is given as a SMILES string.

In turn, `CCOP(=O)(OCC)Oc1ccccc1` came in with a logP in series [1] of 1.64. `CCC(O)(CC(N)=O)c1ccccc1` (configuration not stated) had a logP of 1.83. In [2], `Oc1ccc(CCOCC2CC2)cc1` displayed a logP of 3. `CCC(C)(Oc1ccc(Cl)cc1)C(=O)O` (configuration not stated) yielded a logP in series [3] of 2.9. In [4], `O=C(O)CCc1ccc(I)cc1` gave a logP of 2.81. `CCCCCC/C=C/C=O` registered a logD in [5] of 3.11. Consider `COc1ncnc2c1ncn2[C@@H]1O[C@H](CO)C[C@H]1F`, for which the logP in [6] worked out at 0.25.

In the case of `CCNc1nc(Cl)nc(NC(C)(C)C)n1`, the logP in series [7] turned out to be 3.06. For the compound `CC1=CCC(C(C)C)=CC1`, the logP in series [8] amounted to 4.5.

In series [9], `Clc1cc2ccccc2cc1Cl` returned a logP of 4.71. As for `CCCCCCCCCCCCCCCCOP(=O)(OCC1CC(O)C(n2cnc3c(N)ncnc32)O1)OCC1OC(n2cc(C)c(=O)[nH]c2=O)CC1N=[N+]=[N-]` (configuration not stated), in [10], the logP is 3.26.

For the compound `CC(C)c1ccc(C(=O)O)cc1`, the logP in series [11] turned out to be 3.24. Take `COC1=C(OC)C(=O)C(OC)=C(OC)C1=O`: in series [12], the logP is 0.41. In series [12], `COC1=CC(=O)C(OC)=C(OC)C1=O` came in with a logP of 0.22. Take `CC(C)=CCCC(C)CCO` (configuration not stated): the logP in series [13] was found to be 3.38. For `CCC(=O)c1ccc(O)cc1`, in series [14], the logP is 2.03.

For `[O-][n+]1ccc(Nc2ccc(O)cc2)c2ccc(Cl)cc21`, the logD in series [15] (pH 2.8) was 1.23. In series [15] (pH 7.4), `Clc1ccc2c(Cl)ccnc2c1` came in with a logD of 3.57. Consider `CCOC(=O)[C@@]1(C)[C@H](CO)CC=[N+]1[O-]`, for which, in series [16], the logD was -1.3. In [17], `Clc1cc2c(Cl)c(Cl)c(Cl)c(Cl)c2cc1Cl` registered a log partition coefficient (logP) of 6.77. In the case of `N#Cc1ccc(/C=C2\CCCc3ccccc3C2=O)cc1`, in [18], the logP is 4.27. In the case of `CC(=O)OCCOCn1cnc2cnc(N)nc21`, in [19], the logP is -0.61.

Regarding `CC1(C)C2CCC1(C)C(OCCO)C2` (configuration not stated), in series [8], the logP turned out to be 3.32. Compound `CC(O)(C(=O)O)c1ccccc1` (configuration not stated) gave a logD in series [20] of 0.83. For `Cc1ncc(CNC(=O)N(CCCl)N=O)c(N)n1`, in series [21], the logP amounted to 0.39. The compound `CC(=O)Nc1ccc(C#N)cc1` registered a logD in series [22] of 1.36. `Clc1cccc2cccc(Cl)c12` gave a logP in series [9] of 4.41. As to `CCCC(C)(COC(N)=O)COC(N)=O`, the logP in [18] was 1.12.

`Clc1cc2c(Cl)ccc(Cl)c2c(Cl)c1Cl` registered a logP in series [17] of 6.46. In the case of `CON(C)C(=O)Nc1ccc(Cl)c(Cl)c1`, the logP in [23] was determined as 3. Turning to `NC(=O)Cc1ccc(C(=O)O)cc1`, in [24], the logD was 0.3.

`Cc1[nH]cnc1CSCCNc1cc(=O)cc[nH]1` registered a logP in [25] of 0.8. On to `Cc1ccccc1OCC(=O)O`, for which the logD in [26] is 1.96. In turn, `CCCCCC(C)(C)N` gave a logD in [27] of 2.19. Take `O=C(O)CCCC(=O)c1ccccc1`: in series [20], the logD turned out to be 1.49. `CC(=O)Nc1ncc2ncn(COCCOC(C)=O)c2n1`: the logP in [19] is -1.05. For `CN1CC(O)N(c2nnc(C(C)(C)C)s2)C1=O` (configuration not stated), the logP in series [23] amounted to 1.45.

For the compound `CCCCC/C=C\C=O`, in series [5], the logD was found to be 2.38. Regarding `COc1cccc(C(=O)O)c1OC`, in series [28], the log partition coefficient (logP) stood at 1.94. Turning to `CC(C)OC(=O)[C@@]1(C)[C@H](CO)CC=[N+]1[O-]`, the logD in series [16] was -0.96. In the case of `CCOCC(O)Cn1ccnc1[N+](=O)[O-]` (configuration not stated), the log partition coefficient (logP) in series [29] is -0.07. In [21], `O=C[C@H](NC(=O)N(CCCl)N=O)[C@@H](O)[C@H](O)[C@H](O)CO` yielded a logP of -1.02. `CC(=O)N(C)c1ccc([N+](=O)[O-])cc1` returned a logD in series [22] of 0.91. The compound `CCC(O)c1c(O)c(=O)cc(C)n1C` (configuration not stated) came in with a logD in series [30] of -0.13. Take `O=c1[nH]c(=O)n([C@H]2CC(F)[C@@H](CO)O2)cc1I` (some centres not stated): in series [31], the logD is -0.03. On to `CCc1ccc(C(=O)O)cc1`, for which the logP in series [11] amounted to 2.85. Take `C=CC(=C)CCC=C(C)C`: the logP in series [32] was found to be 4.5.

Turning to `CNC(=O)CCc1c[nH]c2ccccc12`, the logP in series [33] came to 1.23. For `CC(C)=CCC/C(C)=C/C=O`, the logP in [13] was 3.76. `O=C(O)CNC(=O)c1ccccc1I` yielded a logP in series [4] of 1.08. In series [34], `CCOP(=O)(OCC)SCS(=O)(=O)C(C)(C)C` came in with a logP of 2.76.

`CCOP(=O)(OCC)Oc1c(Cl)cc(SC)cc1Cl`: the log partition coefficient (logP) in series [1] stood at 3.72. `CCc1c(O)c(=O)ccn1CCOC(C)=O` had a logD in [30] of -0.24. In series [24], `N#CCc1ccc(C(=O)O)cc1` had a logD of 1.18. For `CCCCCCCCN`, the logD in series [27] amounted to 3.3.

For `OC[C@@H]1[C@@H](O)[C@H](O)[C@@H](O)CN1C/C=C/I`, in series [35], the logD was -0.37.

Take `CC(C)(C)c1cc(C(C)(C)C)c2c(c1F)CO[P@@](=O)(OC[C@H]1O[C@@H](n3cc(I)c(=O)[nH]c3=O)C[C@@H]1O)O2`: in series [31], the log distribution coefficient (logD) was 2.23. `CCC(=O)c1ccccc1O` gave a logP in series [14] of 2.54. In [10], `Nc1ncnc2c1ncn2[C@@H]1O[C@H](CO)C[C@H]1O` displayed a logP of -0.65.

With `C=C(C)C1CC=C(C)CC1` (configuration not stated), the logP in series [32] stood at 4.4.

The compound `COC(=O)COc1ccccc1C` came in with a logD in series [26] of 2.08. For the compound `CNC(=O)CCc1ccccc1`, the logP in series [33] was determined as 1.17. `C/C=C/OCC(O)Cn1ccnc1[N+](=O)[O-]` (configuration not stated) gave a logP in series [29] of 0.28.

Consider `COCCc1ccc(O)cc1`, for which the logP in series [2] stood at 1.85.

In series [3], `O=C(O)C1CCc2ccccc2O1` (configuration not stated) yielded a logP of 1.9. As to `CCNc1nc(Cl)nc(N(CC)CC)n1`, the logP in series [7] was 3.07.

As to `Cc1[nH]cnc1CSCCNC1=NC(=O)CN1`, the logP in [25] was -0.5. In turn, `CCC(O)(C(N)=O)c1ccccc1` (configuration not stated) gave a logP of 1.2.

As to `CCCOC(=O)c1ccccc1`, the logP in series [28] was determined as 3.23. `OC[C@@H]1C[C@@H](F)[C@H](n2cnc3c(Cl)ncnc32)O1`: the logP in series [6] came to 0.32. For the compound `CC(=O)OCC1C(OC(C)=O)C(OC(C)=O)C(OC(C)=O)CN1Cc1cccc(I)c1` (configuration not stated), the logD in series [35] is 3.16. In [34], `CCOP(=O)(OCC)SCS(=O)C(C)(C)C` (configuration not stated) showed a logP of 2.66.

Source of the values: the SangsterLogP compilation.
